Paper PMC5291822 (Bioorganic & medicinal chemistry, 2016)
pIC50: −log10 of the molar value.

Target: T1, human GVIA iPLA2 (Homo sapiens, UniProt O60733)
T1 sequence (O60733 1-806): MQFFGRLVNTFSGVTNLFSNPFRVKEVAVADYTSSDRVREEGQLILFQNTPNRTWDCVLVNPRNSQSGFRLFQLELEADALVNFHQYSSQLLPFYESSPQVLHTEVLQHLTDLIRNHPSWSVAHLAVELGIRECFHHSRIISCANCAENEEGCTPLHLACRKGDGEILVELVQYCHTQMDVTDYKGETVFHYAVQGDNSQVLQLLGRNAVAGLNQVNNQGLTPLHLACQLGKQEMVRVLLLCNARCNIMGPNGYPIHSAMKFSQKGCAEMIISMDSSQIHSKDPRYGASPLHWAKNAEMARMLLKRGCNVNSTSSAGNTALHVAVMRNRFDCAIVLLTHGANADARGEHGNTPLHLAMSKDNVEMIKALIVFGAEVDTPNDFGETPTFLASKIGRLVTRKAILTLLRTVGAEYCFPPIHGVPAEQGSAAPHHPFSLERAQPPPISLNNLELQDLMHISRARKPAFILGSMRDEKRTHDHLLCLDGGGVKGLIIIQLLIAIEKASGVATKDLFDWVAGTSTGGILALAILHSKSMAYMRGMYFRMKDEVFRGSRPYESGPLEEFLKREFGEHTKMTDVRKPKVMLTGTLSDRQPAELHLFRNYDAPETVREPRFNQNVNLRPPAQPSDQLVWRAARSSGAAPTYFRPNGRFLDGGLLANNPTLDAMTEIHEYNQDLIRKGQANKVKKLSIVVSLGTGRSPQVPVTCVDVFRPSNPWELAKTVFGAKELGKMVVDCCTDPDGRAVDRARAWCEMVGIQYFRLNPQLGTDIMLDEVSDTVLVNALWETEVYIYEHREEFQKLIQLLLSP
Assay: mixed micelle modified Dole assay, GVIA iPLA2
Format: biochemical
Conditions: for XI(50) GVIA iPLA2: mole fraction of inhibitor in total substrate interface giving 50% inhibition

## CCCC[C@H](NC(=O)C(=O)CCCCc1ccc(OC)cc1)C(=O)NCCCC(=O)OC(C)(C)C [compound 12e, (S)-tert-Butyl 4-(2-(6-(4-methoxyphenyl)-2-oxohexanamido)hexanamido)butanoate]
  pIC50: 5.42
  XI(50) GVIA iPLA2: 0.007 mole fraction
Selectivity GVIA iPLA2 over GIVA cPLA2
  times more potent inhibition of GVIA iPLA2 than of GIVA cPLA2: around 13 times

## CCCC[C@H](NC(=O)C(=O)CCCCc1ccc2ccccc2c1)C(=O)NCC(=O)O [13b, (S)-2-(2-(6-(Naphthalen-2-yl)-2-oxohexanamido)hexanamido) acetic acid]
  inhibitory activity on GVIA iPLA2 (in words): totally inactive

## CCCC[C@H](NC(=O)C(=O)CCCCc1ccc(OC)cc1)C(=O)NCC(=O)OC(C)(C)C [compound 12c, (S)-tert-Butyl 2-(2-(6-(4-methoxyphenyl)-2-oxohexanamido)hexanamido)acetate]
  pIC50: 5.18
  XI(50) GVIA iPLA2: 0.012 mole fraction

## COc1ccc(CCCCC(=O)C(=O)N[C@@H](CC(C)C)C(=O)NCC(=O)OC(C)(C)C)cc1 [compound 22a, (S)-tert-Butyl 2-(2-(6-(4-methoxyphenyl)-2-oxohexanamido)-4-methylpentanamido)acetate]
  pIC50: 4.89
  XI(50) GVIA iPLA2: 0.024 mole fraction

## CCCC[C@@H](COCC(=O)O)NC(=O)C(=O)CCCCc1ccc(OC)cc1 [20d, (S)-2-((2-(6-(4-Methoxyphenyl)-2-oxohexanamido)hexyl)oxy)acetic acid]
  inhibitory activity on GVIA iPLA2 (in words): totally inactive

## CCCC[C@H](NC(=O)C(=O)CCCCc1ccccc1)C(=O)NCC(=O)O [13a, (S)-2-(2-(2-Oxo-6-phenylhexanamido)hexanamido)acetic acid]
  inhibitory activity on GVIA iPLA2 (in words): totally inactive

## CCCC[C@H](NC(=O)C(=O)CCCCc1ccc(OC)cc1)C(=O)NCC(=O)OCc1ccccc1 [compound 31a, (S)-Benzyl 2-(2-(6-(4-methoxyphenyl)-2-oxohexanamido)hexanamido)acetate]
  pIC50: 4.85
  XI(50) GVIA iPLA2: 0.026 mole fraction
